Results on two compounds are retold here after paper PMC10415349, “Structural basis of agonist specificity of α1A-adrenergic receptor” (Nature Communications, 2023).

By pEC50 is commonly meant −log10 of the EC50, conventionally taken in molar units. A lower pEC50 goes with a high EC50.

pEC50: −log10 of the molar value.

In test [1] the target is T1, α1B-AR(A204V, S208A, L314M) (Homo sapiens, UniProt P35368, A204V/L314M/S208A).
T1 construct: gene ADRA1B
T1 sequence (P35368 1-520 A204V/S208A/L314M): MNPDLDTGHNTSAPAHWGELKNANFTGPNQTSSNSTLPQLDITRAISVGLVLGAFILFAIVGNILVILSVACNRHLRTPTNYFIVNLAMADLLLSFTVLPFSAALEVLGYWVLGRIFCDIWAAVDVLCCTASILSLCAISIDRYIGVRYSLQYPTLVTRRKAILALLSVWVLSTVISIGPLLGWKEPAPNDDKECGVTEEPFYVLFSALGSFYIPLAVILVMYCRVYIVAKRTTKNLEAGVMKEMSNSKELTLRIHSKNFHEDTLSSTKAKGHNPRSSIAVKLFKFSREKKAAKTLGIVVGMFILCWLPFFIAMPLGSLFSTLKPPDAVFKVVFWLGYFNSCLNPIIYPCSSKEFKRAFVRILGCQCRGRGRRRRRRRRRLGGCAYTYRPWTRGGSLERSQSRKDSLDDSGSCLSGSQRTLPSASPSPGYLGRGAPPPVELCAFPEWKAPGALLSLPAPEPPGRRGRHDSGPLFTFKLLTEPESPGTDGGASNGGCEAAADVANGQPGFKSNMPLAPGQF
Put plainly: Ca2+ imaging (GCaMP6f) in transfected HEK293T cells. Type of test: cell-based.

The target of test [2] is T2, α1A-AR(V185A, A189S, M292L) (Homo sapiens, UniProt P35348, V185A/A189S/M292L).
T2 construct: gene ADRA1A
T2 sequence (P35348 whole entry V185A/A189S/M292L): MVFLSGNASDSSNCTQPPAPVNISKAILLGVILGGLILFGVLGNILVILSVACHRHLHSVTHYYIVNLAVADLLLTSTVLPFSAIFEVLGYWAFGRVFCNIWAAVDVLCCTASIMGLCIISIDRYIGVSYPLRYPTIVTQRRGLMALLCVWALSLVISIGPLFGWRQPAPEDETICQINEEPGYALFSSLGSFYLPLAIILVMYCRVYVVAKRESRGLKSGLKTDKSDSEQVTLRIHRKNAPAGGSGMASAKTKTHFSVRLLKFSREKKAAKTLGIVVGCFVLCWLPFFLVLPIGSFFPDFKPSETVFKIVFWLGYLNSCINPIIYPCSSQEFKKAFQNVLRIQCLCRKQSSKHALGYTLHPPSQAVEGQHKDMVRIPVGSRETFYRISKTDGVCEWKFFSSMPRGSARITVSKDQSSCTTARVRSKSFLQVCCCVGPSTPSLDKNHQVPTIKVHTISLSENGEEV

For `CS(=O)(=O)Nc1c(O)ccc2c1CCCC2C1=NCCN1` (centres unmarked) [A61603], in test [1], the pEC50 was roughly 8.00.

In the case of `CNC[C@H](O)c1ccc(O)c(O)c1` [epinephrine], in test [2], the “Ca2+ imaging (GCaMP6f) in transfected HEK293T cells, saturating concentration” value was “This triple mutant was still functional in response to epinephrine”.
